US9573907B2, “2, 4-pyrimidine derivatives and use thereof” (SNU R&DB FOUNDATION, priority 2009, dated 2017)

Legend:
[1] = biological target: interaction of gp96 and AIMP1 (Mus musculus, UniProt P08113); assay: ELISA assay of gp96-AIMP1 interaction; type: binding, murine
Method: FIGS. 1 to 9 represent suppression of cell surface gp96 by GPM1 reduces DC maturation and B220^+ population in gp96tm transgenic mice. (FIG. 1) Chemical structure of GPM1 (Formula 2) and negative control (NC1, Formula 16) used in this study. (FIG. 2) The dose-dependent effect of GPM1 or NC1 on the AIMP1-gp96 interaction using ELISA method as described. The indicated concentrations of the two compounds and biotin-conjugated murine gp96 were added to AIMP1 coated on the surface of microtiter wells, and gp96 bound to AIMP1 was detected with strepavidin-conjugated peroxidase. (FIG. 3) The binding of GPM1 to gp96 was examined by surface plasmon resonance (SPR). GPM1 at the indicated concentrations was injected to immobilized gp96 and the binding was measured using Biacore 3000. The response data were processed using data from a reference surface and buffer injections. Each concentration was tested in triplicate. (FIG. 4) RAW24.7 cells were treated with 10 μM GPM1 for 24 h. Cell lysates were immunoprecipitated with control IgG or anti-gp96 antibody and the immunoprecipitated proteins were immunoblotted with anti-KDELR1, antiAIMP1 and gp96 antibodies. WCL means whole cell lysate. (FIG. 5) Splenocytes isolated from C57BL/6 mice were treated with vehicle (5% DMSO in PBS), GPM1, or NC1 (10 μM, 24 h), stained for cell surface gp96, and followed by flow cytometry. (FIG. 6) AIMP1^+/+ or AIMP1^−/− mouse splenocytes (2×10^5 cells) were treated with vehicle, GPM1, or NC1 (10 μM, 24 h), fixed, and then co-cultured with WT bone marrow-derived DCs (1×10^4 cells) for 16 h. TNFα secreted from BMDCs was quantified by ELISA. (FIG. 7) Percentage of gp96^+ MHC class II^+ cell population in splenocytes from gp96tm transgenic female mice treated with vehicle (control) (n=9), GPM1 (n=9), and dexamethasone (n=7) at 30 mg/kg. (FIG. 8) Cell surface ICOSL of CD11b^+CD11c^+ (myeloid DCs), CD11b^−CD11c^+ (lymphoid DCs), and CD11b^+CD11c^− (macrophages) cell populations in splenocytes from gp96tm transgenic female mice treated with vehicle (n=9) and GPM1 (n=9) at 30 mg/kg. (FIG. 9) Percentage of B220^+, MHC class II^+, CD4^+, CD8^+, CD4 and CD8 double negative cell populations in splenocytes from gp96tm transgenic female mice treated with vehicle (n=9), GPM1 (n=9), and dexamethasone (n=7) at 30 mg/kg. Student t-test P values comparing GPM1-treated mice with control are indicated.
96-well plates (Maxisorp., F96; Nunc) were coated with 500 ng/well AIMP1 in PBS (pH 7.4). After washing, the remaining sites were blocked with PBS containing 1% BSA for 1 h. Binding of 10 ng/well biotin-conjugated gp96 was performed in Tris buffer (25 mM Tris, 10 mM NaCl and 0.4% Triton X-100). Each of the 6,580 compounds was added to the well at 100 nM and the plates were washed and incubated with HRP conjugated streptavidin in PBS containing 0.1% BSA and 0.1% Tween 20 for 30 min. The plates were washed, and then substrate was added to each well. The absorbance was monitored at 450 nm.
To identify chemicals that can affect membrane translocation of gp96, the present inventors employed the interaction of gp96 with AIMP1 as the screening target. For this screening, the present inventors chose 6,482 chemicals with different pharmacophore representing 150,000 different chemicals deposited in Korea Chemical Bank and identified the compounds that can inhibit the interaction of the two proteins. For the screening, the present inventors set up a modified ELISA method using recombinant AIMP1 and gp96 proteins as described in Experimental methods. Each of the tested compounds gave different effect on the interaction of the two proteins (FIG. 19). And the present inventors have selected 12 compounds that inhibited the interaction more than 95% of the control at 0.1 μM (Table 1). The present inventors obtained 1251 additional compounds derived from these 12 initial hits and tested them again for their activities against the gp96-AIMP1 interaction.

[2] = biological target: T1, interaction of gp96 with AIMP1 (Mus musculus, UniProt P08113); assay: Co-immunoprecipitation of gp96 with AIMP1 in RAW24.7 cells; type: cell-based; conditions: 10 μM, 24 h
T1 construct: endogenous in cells; host or cells: RAW24.7 (RAW264.7) cells
T1 sequence (P08113 22-802): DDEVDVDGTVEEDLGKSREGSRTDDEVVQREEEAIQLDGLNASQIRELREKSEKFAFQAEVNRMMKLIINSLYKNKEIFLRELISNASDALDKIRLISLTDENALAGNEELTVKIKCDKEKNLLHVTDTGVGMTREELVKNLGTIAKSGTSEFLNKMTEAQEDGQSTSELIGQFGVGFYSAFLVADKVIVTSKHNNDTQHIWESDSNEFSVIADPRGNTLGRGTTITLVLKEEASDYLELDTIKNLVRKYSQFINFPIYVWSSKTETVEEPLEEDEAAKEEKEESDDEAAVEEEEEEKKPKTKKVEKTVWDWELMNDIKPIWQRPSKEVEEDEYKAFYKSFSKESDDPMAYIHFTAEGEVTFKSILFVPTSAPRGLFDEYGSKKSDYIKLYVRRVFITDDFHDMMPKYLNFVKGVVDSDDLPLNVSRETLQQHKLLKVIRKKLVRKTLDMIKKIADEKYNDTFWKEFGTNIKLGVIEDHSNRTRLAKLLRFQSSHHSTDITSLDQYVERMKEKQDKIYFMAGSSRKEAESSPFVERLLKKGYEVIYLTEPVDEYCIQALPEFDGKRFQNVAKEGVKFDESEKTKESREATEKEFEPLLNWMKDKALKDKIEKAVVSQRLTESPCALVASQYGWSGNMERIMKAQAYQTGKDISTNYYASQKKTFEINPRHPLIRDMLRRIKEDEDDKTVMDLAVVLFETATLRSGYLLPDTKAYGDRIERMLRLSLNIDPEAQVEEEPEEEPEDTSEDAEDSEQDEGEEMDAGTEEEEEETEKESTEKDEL
Method: FIGS. 1 to 9 represent suppression of cell surface gp96 by GPM1 reduces DC maturation and B220^+ population in gp96tm transgenic mice. (FIG. 1) Chemical structure of GPM1 (Formula 2) and negative control (NC1, Formula 16) used in this study. (FIG. 2) The dose-dependent effect of GPM1 or NC1 on the AIMP1-gp96 interaction using ELISA method as described. The indicated concentrations of the two compounds and biotin-conjugated murine gp96 were added to AIMP1 coated on the surface of microtiter wells, and gp96 bound to AIMP1 was detected with strepavidin-conjugated peroxidase. (FIG. 3) The binding of GPM1 to gp96 was examined by surface plasmon resonance (SPR). GPM1 at the indicated concentrations was injected to immobilized gp96 and the binding was measured using Biacore 3000. The response data were processed using data from a reference surface and buffer injections. Each concentration was tested in triplicate. (FIG. 4) RAW24.7 cells were treated with 10 μM GPM1 for 24 h. Cell lysates were immunoprecipitated with control IgG or anti-gp96 antibody and the immunoprecipitated proteins were immunoblotted with anti-KDELR1, antiAIMP1 and gp96 antibodies. WCL means whole cell lysate. […] TNFα secreted from BMDCs was quantified by ELISA. […]

Chain of interaction of gp96 and AIMP1 (P08113 22-802): as above

In the case of `COC(=O)[C@@H](Oc1nc(OC)cc(OC)n1)C(C)C` [GPM1, (S)-methyl 2-(4,6-dimethoxypyrimidin-2-yloxy)-3-methylbutanoate], the IC50 ([1]; dose-dependent effect, ELISA, read-out: 50% inhibition of the interaction of gp96 and AIMP1) is reported as about 30 nM, the inhibition at 0.1 µM ([1]; read-out: Inhibition rate (at 100 nM; %)) is reported as 95% and the “interaction of gp96 with AIMP1” value [2] is reported as “decreased”.
